The source of these data is ChEMBL document CHEMBL1141139 (J Med Chem, 2005).

pEC50, pKi: −log10 of the molar value.

What is called pEC50 is the negative decadic logarithm of the EC50, by convention in mol/L. Lower therefore signals a large EC50. The term LD50 denotes the dose at which mortality reaches 50%. As usually defined, the pKi is the Ki on a negative log10 scale, so that one unit is a factor of ten.

Data set [1] addresses T1, Neuronal acetylcholine receptor; alpha3/beta4 (Rattus norvegicus, UniProt P04757+P12392). As to the kind of experiment: Effective concentration against alpha3-beta4 nicotinic acetylcholine receptor (nAChR) expressed in IMR32 cell. It is filed as cell-based, IMR-32.
The nature of data set [2]: Lethal dose against rodents; Range = 1200-10e4 nmol/kg. Type of data set: toxicity. The conditions noted are these: rodentia.
Data set [3] addresses Neuronal acetylcholine receptor; alpha4/beta2 (Rattus norvegicus, UniProt P09483+P12390). As to the kind of experiment: Displacement of [3H]-cytisine from Alpha4-beta2 Nicotinic acetylcholine receptor of rat brain homogenates. It is filed as tissue-based. (In general: Displacement assays read how much labelled ligand stays bound in the presence of the test substance.)
Data set [4] is described as follows: Lethal dose against rodents; Range = 1200-10e4. It is filed as toxicity. To be noted: rodentia.
For data set [5], the target named is T1, Neuronal acetylcholine receptor; alpha3/beta4. As to the kind of experiment: Displacement of [3H]epibatidine from Alpha3 Beta4 Nicotinic acetylcholine receptor of rat brain homogenates.
The nature of data set [6]: Lethal dose against rodents. It is filed as toxicity. To be noted: rodentia.
The target in data set [7] is T1, Neuronal acetylcholine receptor; alpha3/beta4. The experiment in a line: Effective concentration against alpha3-beta4 nicotinic acetylcholine receptor (nAChR) expressed in Xenopus oocytes. Type of data set: cell-based, Oocyte.
Data set [8] is described as follows: Lethal dose against rodents; Range = 12-120 nmol/kg. Type of data set: toxicity. To be noted: rodentia, in vivo.
A short description of data set [9]: Lethal dose against rodents; Range = 7-67 nmol/kg. Type of data set: toxicity. The conditions noted are these: rodentia, in vivo.
Data set [10] has as its target T1, Neuronal acetylcholine receptor; alpha3/beta4. As to the kind of experiment: Effective concentration against alpha3-beta4 Nicotinic acetylcholine receptor (nAChR). It is filed as protein-complex assay.
The nature of data set [11]: Lethal dose against rodents; Range = 1.37e5 nmol/kg. Type of data set: toxicity. The conditions noted are these: rodentia.
The nature of data set [12]: Lethal dose against rodents; Range = 1.38e7 nmol/kg. Type of data set: toxicity. The conditions noted are these: rodentia.

Neuronal acetylcholine receptor; alpha4/beta2, sequence (P09483 whole entry): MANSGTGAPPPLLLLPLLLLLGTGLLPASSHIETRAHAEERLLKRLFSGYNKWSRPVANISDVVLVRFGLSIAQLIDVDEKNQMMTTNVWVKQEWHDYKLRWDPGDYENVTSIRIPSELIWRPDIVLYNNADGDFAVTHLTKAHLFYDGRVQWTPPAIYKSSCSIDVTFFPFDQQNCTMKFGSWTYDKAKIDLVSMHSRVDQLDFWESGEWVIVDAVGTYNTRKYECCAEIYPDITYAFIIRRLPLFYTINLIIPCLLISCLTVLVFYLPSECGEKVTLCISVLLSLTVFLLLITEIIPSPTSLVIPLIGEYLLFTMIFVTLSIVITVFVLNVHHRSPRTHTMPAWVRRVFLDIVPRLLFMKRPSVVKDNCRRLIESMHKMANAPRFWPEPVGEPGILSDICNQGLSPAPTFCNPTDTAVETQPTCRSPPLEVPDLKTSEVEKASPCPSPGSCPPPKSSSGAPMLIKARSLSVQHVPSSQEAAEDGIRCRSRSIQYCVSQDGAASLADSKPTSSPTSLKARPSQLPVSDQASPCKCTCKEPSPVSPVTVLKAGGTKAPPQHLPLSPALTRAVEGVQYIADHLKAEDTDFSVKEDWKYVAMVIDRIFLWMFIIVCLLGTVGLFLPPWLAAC
Neuronal acetylcholine receptor; alpha4/beta2, sequence (P12390 whole entry): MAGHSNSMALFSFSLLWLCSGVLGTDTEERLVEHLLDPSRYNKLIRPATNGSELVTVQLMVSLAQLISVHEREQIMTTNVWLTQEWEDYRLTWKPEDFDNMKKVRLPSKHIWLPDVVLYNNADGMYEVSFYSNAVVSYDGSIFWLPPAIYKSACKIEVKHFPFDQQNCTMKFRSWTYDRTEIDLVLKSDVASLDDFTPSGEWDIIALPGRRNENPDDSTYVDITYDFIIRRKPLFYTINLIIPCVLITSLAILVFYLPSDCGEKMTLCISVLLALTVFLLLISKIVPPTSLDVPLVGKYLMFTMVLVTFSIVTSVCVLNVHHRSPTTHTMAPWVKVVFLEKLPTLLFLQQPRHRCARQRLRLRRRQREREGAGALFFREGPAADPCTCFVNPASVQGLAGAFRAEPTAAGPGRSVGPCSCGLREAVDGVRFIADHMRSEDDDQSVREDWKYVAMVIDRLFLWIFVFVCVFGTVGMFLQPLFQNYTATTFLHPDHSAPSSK
T1 sequence (P04757 whole entry): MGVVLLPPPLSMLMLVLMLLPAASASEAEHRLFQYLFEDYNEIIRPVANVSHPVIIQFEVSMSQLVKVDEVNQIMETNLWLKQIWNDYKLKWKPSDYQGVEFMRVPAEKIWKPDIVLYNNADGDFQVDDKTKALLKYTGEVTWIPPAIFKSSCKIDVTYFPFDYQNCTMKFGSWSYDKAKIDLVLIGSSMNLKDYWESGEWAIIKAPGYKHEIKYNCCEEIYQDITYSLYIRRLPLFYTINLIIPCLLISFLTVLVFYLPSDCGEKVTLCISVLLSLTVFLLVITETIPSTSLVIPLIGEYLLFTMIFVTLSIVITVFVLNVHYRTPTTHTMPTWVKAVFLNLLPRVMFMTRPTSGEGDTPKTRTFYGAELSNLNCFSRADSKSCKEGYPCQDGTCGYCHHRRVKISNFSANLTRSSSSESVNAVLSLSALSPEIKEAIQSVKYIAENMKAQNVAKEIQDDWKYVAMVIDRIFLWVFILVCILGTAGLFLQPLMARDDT
T1 sequence (P12392 whole entry): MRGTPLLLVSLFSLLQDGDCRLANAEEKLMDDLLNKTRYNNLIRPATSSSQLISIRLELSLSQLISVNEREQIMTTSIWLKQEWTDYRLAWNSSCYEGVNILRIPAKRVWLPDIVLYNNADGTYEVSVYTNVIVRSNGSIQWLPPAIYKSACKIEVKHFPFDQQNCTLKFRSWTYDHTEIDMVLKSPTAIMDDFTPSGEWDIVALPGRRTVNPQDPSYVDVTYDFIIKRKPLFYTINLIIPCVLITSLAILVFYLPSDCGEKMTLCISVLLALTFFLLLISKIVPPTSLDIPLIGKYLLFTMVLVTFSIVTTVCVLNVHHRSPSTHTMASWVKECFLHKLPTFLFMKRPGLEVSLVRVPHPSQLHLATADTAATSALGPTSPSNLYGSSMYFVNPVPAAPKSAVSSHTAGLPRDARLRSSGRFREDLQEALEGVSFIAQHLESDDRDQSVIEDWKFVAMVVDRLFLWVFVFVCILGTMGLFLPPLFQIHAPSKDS

`CN1CCCC1COc1cccnc1` (configuration not stated) had a pEC50 in data set [1] of 4.20. The compound also registered an LD50 in data set [2] of 100 µmol/kg. In data set [3], this compound had a pKi of 9.82.

With `c1cncc(OCC2CCN2)c1` (configuration not stated), the pKi in data set [3] is 10.30; in data set [5], 7.13. In addition, the 50% lethal dose (LD50) in [4] turned out to be 100 µmol/kg.

Compound `CN1CCCC1COc1ccc(Cl)nn1` (configuration not stated) had a pKi in data set [3] of 7.54.

In [3], `CN1CCCC1COc1cnccn1` (configuration not stated) gave a pKi of 7.79.

`CN1CCCC1COc1ccccn1` (configuration not stated) showed a pKi in data set [3] of 6.31.

In the case of `CN1C2C=C(c3cccnc3)CC1CC2` (configuration not stated), the LD50 in data set [6] is 0.25 µmol/kg.

Compound `c1cncc(C2CC3CCC2N3)c1` (single isomer, unassigned; (+)) [DESCHLOROEPIBATIDINE] had a pEC50 in [7] of 6.29. In [3], this compound had a pKi of 10.19. The LD50 in data set [8] (read-out: LD50) turned out to be 0.12 µmol/kg.

Compound `c1cncc(C2CC3CCC2N3)c1` (single isomer, unassigned; (-)) [DESCHLOROEPIBATIDINE] showed a pEC50 in data set [7] of 6.60. The compound also had a pKi in data set [3] of 10.82. The compound further yielded an LD50 in data set [8] of 0.12 µmol/kg.

Take `Clc1ccc([C@@H]2C[C@H]3CC[C@@H]2N3)cn1` [(+)-EPIBATIDINE]: in [9], the LD50 is 0.067 µmol/kg.

In the case of `Cc1cc([C@@H]2CCCN2C)on1` [ABT-418], the pEC50 in data set [10] was 3.68. This compound had a pKi in data set [3] of 8.40. This compound also registered an LD50 in data set [11] of 137 µmol/kg.

The compound `CC(=O)OCC[N+](C)(C)C` [ACETYLCHOLINE] returned an LD50 in data set [12] of 13800 µmol/kg.

On to `Clc1ccc(C2CC3CCC2N3)cn1` (configuration not stated) [EPIBATIDINE], for which the LD50 in [9] came to 0.067 µmol/kg.
